US4385055A, “2-Acetyl-and 2-propionylpyridine thiosemicarbazones as antimalarials” (The United States of America as represented by the …, priority 1981, dated 1983)
Converted amounts (≈) assume the structure as drawn. Read-outs that look alike come from different tables or passages of the source.

Assays:
[1] = system: Mycobacterium smegmatis; assay: MIC against Mycobacterium smegmatis strains (Test 4); format: cell-based; settings: Mycolicibacterium smegmatis, read-out: Minimum Inhibitory Concentration
Procedure: Compounds were tested against four strains of Mycobacterium smegmatis. The test procedure used was as mentioned by N. E. Morrison [Int. J. of Leprosy 39:34-43 (1971)]. The strain numbers refer to Mycobacterium smegmatis ATCC 607, a DDS-resistant daughter strain, a Rifampin-resistant daughter strain, and a Clofazimine-resistant daughter strain, respectively.

[2] = system: Mycobacterium intracellulare; assay: Broth dilution MIC, Mycobacterium intracellulare strains (Test 6); format: cell-based; settings: read-out: Minimum Inhibitory Concentration
[3] = system: Plasmodium berghei KBG 173; assay: In vivo antimalarial activity in mice (Test 5); parameters: key to In vivo Antimalarial Activity: C: Mice surviving 60 days are considered cured; Active: Activity is defined as a 100% increase in the mean survival time of the treated mice compared to the control group; Toxicity is defined as a decrease in the mean survival time of the treated mice as compared to the control group; settings: for ED50: Plasmodium berghei, computed estimate of the dose required to cure 50% of the mice; for In vivo Antimalarial Activity: mice, C = Cure (cured/treated mice)
Procedure: Compounds were tested against Plasmodium berghei KBG 173 malaria in mice following the procedure described by T. S. Osdene, P. B. Russell, and L. Rane [J. Med. Chem. 10:431-434 (1967)]. Five mice were tested at each dosage level. Mice surviving 60 days are considered cured. Toxicity is defined as a decrease in the mean survival time of the treated mice as compared to the control group. Activity is defined as a 100% increase in the mean survival time of the treated mice compared to the control group.

[4] = system: Neisseria meningitidis; assay: Macro broth dilution MIC, Neisseria meningitidis isolates (Test 2); format: cell-based; settings: Neisseria meningitidis, 24 h, read after 24 hours, read-out: Minimum Inhibitory Concentration
Procedure: Compounds were tested against five isolates of Neisseria meningitidis. The bacterial isolates were provided by the Department of Bacterial Diseases of the Walter Reed Army Institute of Research. The test procedure used was the macro broth dilution method in duplicate outlined by J. C. Sherris on pages 414-415 (loc. cit.). The test compounds and controls were prepared as in Test 1 above. Ampicillin and penicillin standards were initially diluted as described by J. C. Sherris on pages 411-412 (loc. cit.) followed by dilution with Mueller-Hinton broth. The tubes were incubated at 37° C. under 5-10% carbon dioxide.

[5] = system: Staphylococcus aureus; assay: Macro broth dilution MIC, Staphylococcus aureus isolates (Test 1); format: cell-based; settings: 24 h, read after 24 hours, read-out: Minimum Inhibitory Concentration
Procedure: (§1) Compounds were tested against five isolates of Staphylococcus aureus and five isolates of Group D Enterococcus. The bacteria used were isolated from patients at the Walter Reed Army Medical Center, Washington, D.C. The test procedure used was the macro broth dilution method in duplicate as outlined by J. C. Sherris on pages 414-415 in "Manual of Clinical Microbiology," 2nd ed., E. Lennette, E. H. Spaulding, and J. P. Truant, Ed. (American Society for Microbiology, Washington, D.C., 1974). Each compound was dissolved in DMSO (12.8 mg/mL) and then diluted with Mueller-Hinton broth to obtain the desired dilutions. Tubes containing the highest quantities of DMSO with no compound present were run as controls.

[6] = system: Neisseria gonorrhoeae; assay: Agar dilution MIC, Neisseria gonorrhoeae isolates (Test 3); format: cell-based; settings: 24 h, read-out: Minimum Inhibitory Concentration
Procedure: Compounds were tested against six Neisseria gonorrhoeae isolates. The bacteria used were provided by the Department of Bacterial Diseases of the Walter Reed Army Institute of Research. The test procedure used was the agar dilution method in duplicate as outlined by J. C. Sherris on pages 411-412 (loc. cit.). GC Medium (Difco) with a 2% defined supplement added as described by D. S. Kellogg et al. [J. Bact. 85:1274-1279 (1963)] was used as the media. The compounds were dissolved in DMSO (1.0 mg/mL), diluted with GC broth (GC Medium without agar) to the appropriate concentration, and added to the GC Medium at 55°-56° C. The latter was then poured and allowed to solidify. A penicillin standard was also prepared with initial dilutions as described by J. C. Sherris followed by dilutions with GC broth and addition to the GC Medium at 55°-56° C. as above. The inoculum was 1:200 GC broth dilution of a suspension of colony isolates after the suspension was adjusted visually to the turbidity standard described by J. M. Matsen and A. L. Barr on page 422 in "Manual of Clinical Microbiology," 2nd ed., E. Lennette, E. H. Spaulding, and J. P. Truant, Ed. (American Society for Microbiology, Washington, D.C., 1974). The plates were inoculated with a replicator and incubated at 37° C. under 5-10% carbon dioxide.

[7] = system: Group D Enterococcus; assay: Macro broth dilution MIC, Group D Enterococcus isolates (Test 1); format: cell-based; settings: 24 h, read after 24 hours, read-out: Minimum Inhibitory Concentration
Procedure: as §1

[8] = Mycobacterium intracellulare strain I
[9] = Mycobacterium intracellulare strain II
[10] = Mycobacterium intracellulare strain III
[11] = Mycobacterium intracellulare strain IV
[12] = Mycobacterium intracellulare strain V
[13] = Mycobacterium intracellulare strain VI
[14] = Neisseria meningitidis isolate 7957
[15] = Neisseria meningitidis isolate 7990
[16] = Neisseria meningitidis isolate 8005
[17] = Neisseria meningitidis isolate 8006
[18] = Neisseria meningitidis isolate 8011
[19] = Staphylococcus aureus isolate I
[20] = Staphylococcus aureus isolate II
[21] = Staphylococcus aureus isolate III
[22] = Staphylococcus aureus isolate IV
[23] = Staphylococcus aureus isolate V
[24] = Neisseria gonorrhoeae isolate 135, read after 24 hours
[25] = Neisseria gonorrhoeae isolate 161, read after 24 hours
[26] = Neisseria gonorrhoeae isolate 278, read after 24 hours
[27] = Neisseria gonorrhoeae isolate 455, read after 24 hours
[28] = Neisseria gonorrhoeae isolate 456, read after 24 hours
[29] = Neisseria gonorrhoeae isolate 602, read after 24 hours
[30] = Group D Enterococcus isolate II
[31] = Group D Enterococcus isolate III
[32] = Group D Enterococcus isolate IV

MIC [5, 19]	MIC [5, 20]	MIC [5, 21]	MIC [5, 22]	MIC [5, 23]	Structure (SMILES)	MIC [2, 8]	MIC [2, 9]	MIC [2, 10]	MIC [2, 11]	MIC [2, 12]	MIC [2, 13]	ED50 [3]	MIC [4, 14]	MIC [4, 15]	MIC [4, 16]	MIC [4, 17]	MIC [4, 18]	In vivo Antimalarial Activity ([3]; Dosage Level 640 mg/kg)	MIC [6, 24]	MIC [6, 25]	other results
–	–	–	–	–	CCC1CCCCN1C(=S)NN=C(C)c1ccccn1 (centres unmarked) [AA, 2-Ethylpiperidine-1-thiocarboxylic acid 2-[1-(2-pyridyl)ethylidene]hydrazide]	10 µg/mL (≈ 34.4 µM)	1 µg/mL (≈ 3.44 µM)	1 µg/mL (≈ 3.44 µM)	1 µg/mL (≈ 3.44 µM)	10 µg/mL (≈ 34.4 µM)	10 µg/mL (≈ 34.4 µM)	113 mg/kg	–	–	–	–	–	–	–	–	MIC ([1]; ATCC607, Mycobacterium smegmatis strain I (ATCC 607)): 5 µg/mL (≈ 17.2 µM); MIC ([1]; Mycobacterium smegmatis strain II (DDS-resistant daughter strain)): 10 µg/mL (≈ 34.4 µM); MIC ([1]; Mycobacterium smegmatis strain III (Rifampin-resistant daughter strain)): 10 µg/mL (≈ 34.4 µM); MIC ([1]; Mycobacterium smegmatis strain IV (Clofazimine-resistant daughter strain)): 10 µg/mL (≈ 34.4 µM)
1 µg/mL (≈ 3.62 µM)	1 µg/mL (≈ 3.62 µM)	1 µg/mL (≈ 3.62 µM)	1 µg/mL (≈ 3.62 µM)	1 µg/mL (≈ 3.62 µM)	CC(=NNC(=S)N1CCCCC1C)c1ccccn1 (centres unmarked) [B, 2-Methylpiperidine-1-thiocarboxylic acid 2-[1-(2-pyridyl)ethylidene]hydrazide]	–	–	–	–	–	–	57 mg/kg	0.062 µg/mL (≈ 0.224 µM)	0.062 µg/mL (≈ 0.224 µM)	0.125 µg/mL (≈ 0.452 µM)	0.062 µg/mL (≈ 0.224 µM)	0.5 µg/mL (≈ 1.81 µM)	Toxic	–	–	In vivo Antimalarial Activity ([3]; Dosage Level 160 mg/kg): Active; In vivo Antimalarial Activity ([3]; Dosage Level 320 mg/kg): Toxic
–	–	–	–	–	CCOC(=O)N1CCN(C(=S)NN=C(C)c2ccccn2)CC1 [Compound I, 1,4-Diaza-4-carboethoxycyclohexane-1-thiocarboxylic acid 2-[1-(2-pyridyl)ethylidene]hydrazide]	–	–	–	–	–	–	–	–	–	–	–	–	Toxic	–	–	In vivo Antimalarial Activity ([3]; Dosage Level 10 mg/kg): Active; In vivo Antimalarial Activity ([3]; Dosage Level 20 mg/kg): Active; In vivo Antimalarial Activity ([3]; Dosage Level 160 mg/kg): Toxic
–	–	–	–	–	CC(=NNC(=S)N1CCCCCC1)c1ccccn1 [H, 1-Azacycloheptane-1-thiocarboxylic acid 2-[1-(2-pyridyl)ethylidene]hydrazide]	1 µg/mL (≈ 3.62 µM)	1 µg/mL (≈ 3.62 µM)	1 µg/mL (≈ 3.62 µM)	1 µg/mL (≈ 3.62 µM)	1 µg/mL (≈ 3.62 µM)	1 µg/mL (≈ 3.62 µM)	72 mg/kg	0.031 µg/mL (≈ 0.112 µM)	0.062 µg/mL (≈ 0.224 µM)	0.062 µg/mL (≈ 0.224 µM)	0.125 µg/mL (≈ 0.452 µM)	0.062 µg/mL (≈ 0.224 µM)	–	0.031 µg/mL (≈ 0.112 µM)	0.016 µg/mL (≈ 0.0579 µM)	MIC [6, 26]: 0.031 µg/mL (≈ 0.112 µM); MIC [6, 27]: 0.031 µg/mL (≈ 0.112 µM); MIC [6, 28]: 0.016 µg/mL (≈ 0.0579 µM); MIC [6, 29]: 0.031 µg/mL (≈ 0.112 µM); MIC ([7]; Group D Enterococcus isolate I): 4 µg/mL (≈ 14.5 µM); MIC [7, 30]: 4 µg/mL (≈ 14.5 µM); MIC [7, 31]: 4 µg/mL (≈ 14.5 µM); MIC [7, 32]: 4 µg/mL (≈ 14.5 µM); MIC ([7]; Group D Enterococcus isolate V): 4 µg/mL (≈ 14.5 µM); In vivo Antimalarial Activity ([3]; Dosage Level 40 mg/kg): Active
2 µg/mL (≈ 6.09 µM)	2 µg/mL (≈ 6.09 µM)	4 µg/mL (≈ 12.2 µM)	2 µg/mL (≈ 6.09 µM)	1 µg/mL (≈ 3.04 µM)	CC(=NNC(=S)NC12CC3CC(CC(C3)C1)C2)c1ccccn1 [S, 2-Acetylpyridine 4-(1-adamantyl)-3-thiosemicarbazone]	10 µg/mL (≈ 30.4 µM)	1 µg/mL (≈ 3.04 µM)	1 µg/mL (≈ 3.04 µM)	10 µg/mL (≈ 30.4 µM)	10 µg/mL (≈ 30.4 µM)	10 µg/mL (≈ 30.4 µM)	–	–	–	–	–	–	–	–	–	MIC ([7]; Group D Enterococcus isolate I): 2 µg/mL (≈ 6.09 µM); MIC [7, 30]: 1 µg/mL (≈ 3.04 µM); MIC [7, 31]: 2 µg/mL (≈ 6.09 µM); MIC [7, 32]: 2 µg/mL (≈ 6.09 µM); MIC ([7]; Group D Enterococcus isolate V): 2 µg/mL (≈ 6.09 µM)
–	–	–	–	–	CC(=NNC(=S)N1CCN(c2ccccn2)CC1)c1ccccn1 [V, 1,4-Diaza-4-(2-pyridyl)cyclohexane-1-thiocarboxylic acid 2-[1-(2-pyridyl)ethylidene]hydrazide]	–	–	–	–	–	–	45 mg/kg	0.062 µg/mL (≈ 0.182 µM)	0.125 µg/mL (≈ 0.367 µM)	0.125 µg/mL (≈ 0.367 µM)	0.125 µg/mL (≈ 0.367 µM)	0.25 µg/mL (≈ 0.734 µM)	Toxic	0.016 µg/mL (≈ 0.047 µM)	< 0.008 µg/mL	MIC [6, 26]: 0.031 µg/mL (≈ 0.0911 µM); MIC [6, 27]: 0.016 µg/mL (≈ 0.047 µM); MIC [6, 28]: 0.016 µg/mL (≈ 0.047 µM); MIC [6, 29]: 0.016 µg/mL (≈ 0.047 µM)

Structure (SMILES)	MIC [5, 19]	MIC [5, 20]	MIC [5, 21]	MIC [5, 22]	MIC [5, 23]	MIC [2, 8]	MIC [2, 9]	MIC [2, 10]	MIC [2, 11]	MIC [2, 12]	MIC [2, 13]	ED50 [3]	MIC [4, 14]	MIC [4, 15]	MIC [4, 16]	MIC [4, 17]	MIC [4, 18]	In vivo Antimalarial Activity ([3]; Dosage Level 640 mg/kg)	MIC [6, 24]	MIC [6, 25]	other results
CC(=NNC(=S)N1CC2CCC(CC2)C1)c1ccccn1 [L, 3-Azabicyclo[3.2.2]nonane-3-thiocarboxylic acid 2-[1-(2-pyridyl)ethylidene]hydrazide]	1 µg/mL (≈ 3.31 µM)	1 µg/mL (≈ 3.31 µM)	1 µg/mL (≈ 3.31 µM)	1 µg/mL (≈ 3.31 µM)	1 µg/mL (≈ 3.31 µM)	10 µg/mL (≈ 33.1 µM)	1 µg/mL (≈ 3.31 µM)	1 µg/mL (≈ 3.31 µM)	0.1 µg/mL (≈ 0.331 µM)	0.1 µg/mL (≈ 0.331 µM)	0.1 µg/mL (≈ 0.331 µM)	59 mg/kg	0.031 µg/mL (≈ 0.102 µM)	0.062 µg/mL (≈ 0.205 µM)	< 0.031 µg/mL	0.062 µg/mL (≈ 0.205 µM)	0.125 µg/mL (≈ 0.413 µM)	–	0.031 µg/mL (≈ 0.102 µM)	0.016 µg/mL (≈ 0.0529 µM)	MIC [6, 26]: 0.031 µg/mL (≈ 0.102 µM); MIC [6, 27]: 0.031 µg/mL (≈ 0.102 µM); MIC [6, 28]: 0.031 µg/mL (≈ 0.102 µM); MIC [6, 29]: 0.031 µg/mL (≈ 0.102 µM); MIC ([7]; Group D Enterococcus isolate I): 2 µg/mL (≈ 6.61 µM); MIC [7, 30]: 2 µg/mL (≈ 6.61 µM); MIC [7, 31]: 2 µg/mL (≈ 6.61 µM); MIC [7, 32]: 2 µg/mL (≈ 6.61 µM); MIC ([7]; Group D Enterococcus isolate V): 2 µg/mL (≈ 6.61 µM)
